In PubChem BioAssay AID504363 (Southern Research Specialized Biocontainment Screening …, 2011):
Calls of active or inactive are those of the source.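 How the source made its calls: active means compound cutting virus infection of reporter cells by half or more at some tested dose; inactive means the rest.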

What follows are molecules tested on MAGI-CCR5 HeLa cells, HIV-1 IIIB, beta-gal luminescence, 48 h (assay: X4 HIV-1 replication inhibitors in MAGI cells, dose response, MAGI-CCR5 cells, beta-gal luminescence, 2% serum (AID 504363)).

IC50 | SMILES
11 µM | O=C(O)c1ccc([C@@H]2Nc3ccc(S(=O)(=O)Nc4cccc5ccccc45)cc3[C@@H]3C=CC[C@@H]32)cc1
3.25 µM | Cc1c2c(=O)n(-c3nc4ccccc4s3)nc-2cc(O)n1Cc1cccs1
24.8 µM | O=C(O)CCCN1C(=O)/C(=C/c2cc3ccccc3o2)SC1=S
2.81 µM | Cc1c2c(=O)n(-c3nc4ccccc4s3)nc-2cc(O)n1Cc1cccnc1
35.7 µM | CS(=O)(=O)C1=NSC2=NC(=O)/C(=C\c3cccn3-c3cccc(Cl)c3)C(=N)N21
53.9 µM | O=C(O)c1ccc(C[n+]2c(-c3ccccc3)csc2Nc2ccccc2)cc1
34.4 µM | CCOc1ccc(-n2cccc2/C=C2/C(=N)N3C(=NC2=O)SN=C3S(C)(=O)=O)cc1
1.08 µM | Cc1c2c(=O)n(-c3nc4ccccc4s3)nc-2cc(O)n1C1CC1
3.93 µM | COc1ccccc1NS(=O)(=O)c1ccc2c(c1)C1C=CCC1C(c1ccc(C(=O)O)cc1)N2 (stereo not drawn)
31.7 µM | O=C(O)c1ccc(C[n+]2c(-c3ccc([N+](=O)[O-])cc3)csc2Nc2ccccc2)cc1
34.3 µM | Cc1ccc(-n2cccc2/C=C2/C(=N)N3C(=NC2=O)SN=C3S(C)(=O)=O)cc1
3.09 µM | COc1ccc(Cn2c(O)cc3nn(-c4nc5ccccc5s4)c(=O)c-3c2C)cc1
20.6 µM | Cc1ccc(-c2ccc(/C=C3\SC(=S)N(CCCC(=O)O)C3=O)o2)cc1
19.9 µM | O=C(O)CCCN1C(=O)/C(=C/c2ccc(-c3ccc(Cl)c(Cl)c3)o2)SC1=S
> 100 µM (inactive) | CC1=C(C(=O)OC(C)C)C(c2ccc(Cl)cc2)n2c(s/c(=C\c3ccc(OCC(=O)O)cc3)c2=O)=N1 (stereo not drawn)
15.8 µM | O=C(O)c1ccc(C2Nc3ccc(S(=O)(=O)Nc4cc(Cl)ccc4Cl)cc3C3C=CCC32)cc1 (stereo not drawn)
34.5 µM | CCOC(=O)C1=C(C)N=c2sc(=Cc3ccc(OCC(=O)O)cc3)c(=O)n2C1c1ccccc1OC (stereo not drawn)
37.9 µM | O=C(O)CCCN1C(=O)/C(=C\c2ccc(-c3ccc(Br)cc3)o2)SC1=S
39.7 µM | COc1cccc(C2C(C(=O)Nc3ccccc3)=C(C)N=c3sc(=Cc4ccc(OCC(=O)O)cc4)c(=O)n32)c1 (stereo not drawn)
14.8 µM | CCc1ccc(-c2ccc(/C=C3\SC(=S)N(CCCC(=O)O)C3=O)o2)cc1
91.7 µM | CCOC(=O)C1=C(C)N=c2sc(=Cc3ccc(OCC(=O)O)cc3)c(=O)n2C1c1cc(OC)c(OC)c(OC)c1 (stereo not drawn)
34.9 µM | CS(=O)(=O)C1=NSC2=NC(=O)/C(=C\c3cccn3-c3ccc(F)cc3)C(=N)N21
34.1 µM | CS(=O)(=O)C1=NSC2=NC(=O)/C(=C\c3cccn3-c3cccc(C(F)(F)F)c3)C(=N)N21
4.66 µM | Cc1c2c(=O)n(-c3nc4ccccc4s3)nc-2cc(O)n1CCc1ccc(O)cc1
3.7 µM | Cc1c2c(=O)n(-c3nc4ccccc4s3)nc-2cc(O)n1CCc1cccs1
23.4 µM | O=C(O)CCCN1C(=O)/C(=C/c2ccc(-c3cccc(C(F)(F)F)c3)o2)SC1=S
2.53 µM | Cc1c2c(=O)n(-c3nc4ccccc4s3)nc-2cc(O)n1CCC(C)C

IC50 | SMILES
28.7 µM | O=C(O)CCCN1C(=O)/C(=C\c2ccc(-c3cccc(Cl)c3)o2)SC1=S
2.63 µM | Cc1c2c(=O)n(-c3nc4ccccc4s3)nc-2cc(O)n1Cc1ccc(F)cc1
26 µM | COc1ccc(-c2ccc(/C=C3\SC(=S)N(CCCC(=O)O)C3=O)o2)cc1
36.8 µM | COc1ccc(-n2cccc2/C=C2/C(=N)N3C(=NC2=O)SN=C3S(C)(=O)=O)cc1Cl
20.5 µM | COc1ccc(CCn2c(O)cc3nn(-c4nc5ccccc5s4)c(=O)c-3c2C)cc1
33.7 µM | CS(=O)(=O)C1=NSC2=NC(=O)/C(=C\c3cccn3-c3ccc(Cl)c(Cl)c3)C(=N)N21
31.9 µM | CCc1ccc(-n2cccc2/C=C2/C(=N)N3C(=NC2=O)SN=C3S(C)(=O)=O)cc1
> 100 µM (inactive) | O=C(O)CCC(C(=O)O)N1C(=O)/C(=C\c2ccco2)SC1=S (stereo not drawn)
4.44 µM | Cc1c2c(=O)n(-c3nc4ccccc4s3)nc-2cc(O)n1Cc1ccncc1
34.4 µM | CCOC(=O)C1=C(C)N=c2sc(=Cc3ccc(OCC(=O)O)cc3)c(=O)n2C1c1ccccc1 (stereo not drawn)
33.7 µM | CCOC(=O)C1=C(C)N=c2sc(=Cc3ccc(OCC(=O)O)cc3)c(=O)n2C1c1ccc(OC)cc1OC (stereo not drawn)
34.3 µM | CS(=O)(=O)C1=NSC2=NC(=O)/C(=C\c3cccn3-c3cc(Cl)cc(Cl)c3)C(=N)N21
36.2 µM | CS(=O)(=O)C1=NSC2=NC(=O)/C(=C\c3cccn3-c3ccc(Cl)cc3)C(=N)N21
29 µM | CCOC(=O)C1=C(C)N=c2sc(=Cc3ccc(OCC(=O)O)cc3)c(=O)n2C1c1ccc(F)cc1 (stereo not drawn)
24.4 µM | CCOC(=O)C1=C(C)N=c2s/c(=C\c3ccc(OCC(=O)O)cc3)c(=O)n2C1c1ccc(Cl)cc1 (stereo not drawn)
4.17 µM | Cc1c2c(=O)n(-c3nc4ccccc4s3)nc-2cc(O)n1Cc1ccccc1Cl
20.6 µM | O=C(O)CCCN1C(=O)/C(=C\c2ccc(-c3ccc(F)cc3)o2)SC1=S
35.2 µM | Cc1ccc(-n2cccc2/C=C2/C(=N)N3C(=NC2=O)SN=C3S(C)(=O)=O)cc1C
30.4 µM | CCOC(=O)C1=C(C)N=c2s/c(=C\c3ccc(OCC(=O)O)cc3)c(=O)n2C1c1ccc(OC)c(OCC)c1 (stereo not drawn)
10.6 µM | CCOC(=O)C1=C(c2ccccc2)N=c2s/c(=C\c3ccc(OCC(=O)O)cc3)c(=O)n2C1c1cccc(OC)c1 (stereo not drawn)
> 100 µM (inactive) | Nc1sc2ccccc2[n+]1Cc1ccc(C(=O)O)cc1
15.2 µM | O=C(O)CCCN1C(=O)/C(=C\c2ccc(-c3ccc(Cl)cc3)o2)SC1=S
34.3 µM | CS(=O)(=O)C1=NSC2=NC(=O)/C(=C\c3cccn3-c3ccc(Br)cc3)C(=N)N21
2.59 µM | COc1ccccc1Cn1c(O)cc2nn(-c3nc4ccccc4s3)c(=O)c-2c1C
36.9 µM | CS(=O)(=O)C1=NSC2=NC(=O)/C(=C\c3cccn3-c3cccc(F)c3)C(=N)N21
31.4 µM | COc1cccc(-n2cccc2/C=C2/C(=N)N3C(=NC2=O)SN=C3S(C)(=O)=O)c1
